Results as given in article PMC5298231, “The Malaria Parasite's Lactate Transporter PfFNT Is the Target of Antiplasmodial Compounds Identified in Whole Cell Phenotypic Screens” (PLoS Pathogens, 2017).
Read-outs that look alike come from different tables or passages of the source.

System: erythrocytes infected with 3D7 trophozoites
Type: cell-based, Plasmodium falciparum
Details: 6 μM

COc1ccc2c(c1)OC(O)(C(F)(F)C(F)(F)F)CC2=O (stereo not shown) [MMV007839]
Serine log2 ratio (+MMV007839/-MMV007839) (Av 3hr): 0.166 | Succinate log2 ratio (+MMV007839/-MMV007839) (Av 3hr): -0.2462 | Succinate semialdehyde log2 ratio (+MMV007839/-MMV007839) (Av 3hr): -0.7119 | TNVK log2 ratio (+MMV007839/-MMV007839) (Av 3hr): -1.745 | Threonine log2 ratio (+MMV007839/-MMV007839) (Av 3hr): 0.01502 | Tryptophan log2 ratio (+MMV007839/-MMV007839) (Av 3hr): -0.2359 | Tyrosine log2 ratio (+MMV007839/-MMV007839) (Av 3hr): -0.01653 | UDP log2 ratio (+MMV007839/-MMV007839) (Av 3hr): -0.7159 | UDP-N-acetyl-D-glucosamine log2 ratio (+MMV007839/-MMV007839) (Av 3hr): 0.05247 | UDP-glucose log2 ratio (+MMV007839/-MMV007839) (Av 3hr): -0.07837 | UMP log2 ratio (+MMV007839/-MMV007839) (Av 3hr): -0.2624 | Uracil log2 ratio (+MMV007839/-MMV007839) (Av 3hr): -0.6081 | Uric Acid log2 ratio (+MMV007839/-MMV007839) (Av 3hr): -0.1135 | VD log2 ratio (+MMV007839/-MMV007839) (Av 3hr): 1.073 | Valine log2 ratio (+MMV007839/-MMV007839) (Av 3hr): -0.194 | Xanthine log2 ratio (+MMV007839/-MMV007839) (Av 3hr): -0.464 | dADP log2 ratio (+MMV007839/-MMV007839) (Av 3hr): -1.193 | dATP log2 ratio (+MMV007839/-MMV007839) (Av 3hr): -0.03116 | dCDP log2 ratio (+MMV007839/-MMV007839) (Av 3hr): 0.3315 | dGMP log2 ratio (+MMV007839/-MMV007839) (Av 3hr): 0.1661 | dTMP log2 ratio (+MMV007839/-MMV007839) (Av 3hr): 0.1316 | dTTP log2 ratio (+MMV007839/-MMV007839) (Av 3hr): -0.08156 | dUMP log2 ratio (+MMV007839/-MMV007839) (Av 3hr): 1.365 | myo-Inositol log2 ratio (+MMV007839/-MMV007839) (Av 3hr): -0.258 | sn-Glycerol 3-phosphate log2 ratio (+MMV007839/-MMV007839) (Av 3hr): 1.559 | sn-glycero-3-Phospho-1-inositol log2 ratio (+MMV007839/-MMV007839) (Av 3hr): 0.1698 | Hexose-phosphate log2 ratio (+MMV007839/-MMV007839) (Av 3hr, medRt 15.0954): -0.3219 | 6-Phospho-D-gluconate log2 ratio (+MMV007839/-MMV007839) (Av 3hr, medRt 16.8944): -0.6275 | Hexose-phosphate log2 ratio (+MMV007839/-MMV007839) (Av 3hr, medRt 17.0788): -1.577 | 6-Phospho-D-gluconate log2 ratio (+MMV007839/-MMV007839) (Av 3hr, medRt 17.4636): -0.2282 | 1-3 (2-3)-diphopshateglycerate log2 ratio (+MMV007839/-MMV007839) (Av 6hr): 0.3636 | 2-Hydroxyglutarate log2 ratio (+MMV007839/-MMV007839) (Av 6hr): -0.3824 | 2-Ketoglutarate log2 ratio (+MMV007839/-MMV007839) (Av 6hr): -0.4713 | 3-Phosho-D-glycerate log2 ratio (+MMV007839/-MMV007839) (Av 6hr): 0.02516 | 3-Phospho-serine log2 ratio (+MMV007839/-MMV007839) (Av 6hr): -0.6364 | 4-Aminobutanoate log2 ratio (+MMV007839/-MMV007839) (Av 6hr): 1.092 | 5-Phosphoribosyl-1-pyrophosphate log2 ratio (+MMV007839/-MMV007839) (Av 6hr): 0.556 | ADP log2 ratio (+MMV007839/-MMV007839) (Av 6hr): -0.3027 | AMP log2 ratio (+MMV007839/-MMV007839) (Av 6hr): -0.04039 | ATLS log2 ratio (+MMV007839/-MMV007839) (Av 6hr): -0.1601 | ATP log2 ratio (+MMV007839/-MMV007839) (Av 6hr): -0.3608 | Acetyl-CoA log2 ratio (+MMV007839/-MMV007839) (Av 6hr): -0.9886 | Acetyl-L-alanine log2 ratio (+MMV007839/-MMV007839) (Av 6hr): -0.3969 | Adenine log2 ratio (+MMV007839/-MMV007839) (Av 6hr): -0.7079 | Arginine log2 ratio (+MMV007839/-MMV007839) (Av 6hr): 0.2024 | Asparagine log2 ratio (+MMV007839/-MMV007839) (Av 6hr): 0.205 | Aspartic Acid log2 ratio (+MMV007839/-MMV007839) (Av 6hr): -0.08675 | CDP log2 ratio (+MMV007839/-MMV007839) (Av 6hr): -0.2824 | CDP-ethanolamine log2 ratio (+MMV007839/-MMV007839) (Av 6hr): -0.09908 | CMP log2 ratio (+MMV007839/-MMV007839) (Av 6hr): 0.2839 | CTP log2 ratio (+MMV007839/-MMV007839) (Av 6hr): -0.5655 | Cholesteryl sulfate log2 ratio (+MMV007839/-MMV007839) (Av 6hr): -0.1903 | Citrate log2 ratio (+MMV007839/-MMV007839) (Av 6hr): -0.1627 | CoA log2 ratio (+MMV007839/-MMV007839) (Av 6hr): -0.6499 | Cyclic AMP log2 ratio (+MMV007839/-MMV007839) (Av 6hr): -1.349 | Cytidine log2 ratio (+MMV007839/-MMV007839) (Av 6hr): 0.1751 | D-Glucono-1-4-lactone log2 ratio (+MMV007839/-MMV007839) (Av 6hr): 2.219 | DALT log2 ratio (+MMV007839/-MMV007839) (Av 6hr): 0.7209 | DEVG log2 ratio (+MMV007839/-MMV007839) (Av 6hr): -0.06216 | DGLA log2 ratio (+MMV007839/-MMV007839) (Av 6hr): 0.8365 | DLS log2 ratio (+MMV007839/-MMV007839) (Av 6hr): -0.1236 | Deoxycytidine log2 ratio (+MMV007839/-MMV007839) (Av 6hr): 1.626 | Dihydroorotate log2 ratio (+MMV007839/-MMV007839) (Av 6hr): -1.004 | ESFG log2 ratio (+MMV007839/-MMV007839) (Av 6hr): 0.5044 | EVGG log2 ratio (+MMV007839/-MMV007839) (Av 6hr): -0.2203 | Erythrose 4-phosphate log2 ratio (+MMV007839/-MMV007839) (Av 6hr): -0.7036 | FAD log2 ratio (+MMV007839/-MMV007839) (Av 6hr): -0.616 | FMN log2 ratio (+MMV007839/-MMV007839) (Av 6hr): -0.6137 | Farnesyl diphosphate log2 ratio (+MMV007839/-MMV007839) (Av 6hr): -0.2783 | Folate log2 ratio (+MMV007839/-MMV007839) (Av 6hr): -0.4942 | Fructose-1-6-bisphosphate log2 ratio (+MMV007839/-MMV007839) (Av 6hr): 0.3974 | Fructose-6-Phosphate log2 ratio (+MMV007839/-MMV007839) (Av 6hr): -0.1081 | GDP log2 ratio (+MMV007839/-MMV007839) (Av 6hr): -0.8963 | GDP-mannose log2 ratio (+MMV007839/-MMV007839) (Av 6hr): -1.076 | GMP log2 ratio (+MMV007839/-MMV007839) (Av 6hr): -0.8795 | GTP log2 ratio (+MMV007839/-MMV007839) (Av 6hr): -0.6956 | Geranylgeranyl pyrophosphate log2 ratio (+MMV007839/-MMV007839) (Av 6hr): -0.7121 | Gluconate log2 ratio (+MMV007839/-MMV007839) (Av 6hr): -0.0152 | Glucose-6-Phosphate log2 ratio (+MMV007839/-MMV007839) (Av 6hr): -0.5083 | Glutamate log2 ratio (+MMV007839/-MMV007839) (Av 6hr): -0.02563 | Glutamine log2 ratio (+MMV007839/-MMV007839) (Av 6hr): 1.089 | Glutathione disulfide log2 ratio (+MMV007839/-MMV007839) (Av 6hr): -0.1925 | Glutathione log2 ratio (+MMV007839/-MMV007839) (Av 6hr): -0.4326 | Glyceraldehyde 3-phosphate log2 ratio (+MMV007839/-MMV007839) (Av 6hr): -1.148 | Glycerone phosphate log2 ratio (+MMV007839/-MMV007839) (Av 6hr): -0.3794 | HLD log2 ratio (+MMV007839/-MMV007839) (Av 6hr): 0.5581 | HVDD log2 ratio (+MMV007839/-MMV007839) (Av 6hr): 0.02571 | Histidine log2 ratio (+MMV007839/-MMV007839) (Av 6hr): 1.263 | Homoserine log2 ratio (+MMV007839/-MMV007839) (Av 6hr): 0.6347 | Hydroxy-L-proline log2 ratio (+MMV007839/-MMV007839) (Av 6hr): -0.1227 | Hypoxanthine log2 ratio (+MMV007839/-MMV007839) (Av 6hr): 0.2056 | IDP log2 ratio (+MMV007839/-MMV007839) (Av 6hr): 0.2522 | IMP log2 ratio (+MMV007839/-MMV007839) (Av 6hr): -0.2109 | Inosine log2 ratio (+MMV007839/-MMV007839) (Av 6hr): 0.5174 | Isoleucine log2 ratio (+MMV007839/-MMV007839) (Av 6hr): 0.1143 | LD log2 ratio (+MMV007839/-MMV007839) (Av 6hr): 0.1248 | Lactate log2 ratio (+MMV007839/-MMV007839) (Av 6hr): 2.505 | Leucine log2 ratio (+MMV007839/-MMV007839) (Av 6hr): 0.06585 | Lysine log2 ratio (+MMV007839/-MMV007839) (Av 6hr): 1.1316 | Malate log2 ratio (+MMV007839/-MMV007839) (Av 6hr): -0.236 | Mannitol log2 ratio (+MMV007839/-MMV007839) (Av 6hr): -0.1109 | Methionine log2 ratio (+MMV007839/-MMV007839) (Av 6hr): -0.2224 | Myristic acid log2 ratio (+MMV007839/-MMV007839) (Av 6hr): -0.7184 | N-Acetyl-glutamate log2 ratio (+MMV007839/-MMV007839) (Av 6hr): -1.091 | N-Carbamoyl-L-aspartate log2 ratio (+MMV007839/-MMV007839) (Av 6hr): -1.386 | NAD+ log2 ratio (+MMV007839/-MMV007839) (Av 6hr): 0.1336
